Measurements as given in patent publication US9670227B2, “Thienopyrimidine derivatives, a process for their preparation and pharmaceutical compositions containing them” (LES LABORATOIRES SERVIER, priority 2013, dated 2017).
Where two headings read alike, the source gives them in different places.

Experiments:
[1] = target: Mcl-1 protein (UniProtKB primary accession number: Q07820) (Homo sapiens, UniProt Q07820); assay: Inhibition of Mcl-1 by fluorescence polarisation, Method 1; type: binding; details: fluorescence polarisation test; Method 2 values are underlined in the patent (underlining not visible here); read-out: IC50 (M) Mcl-1 FP
Chain of Mcl-1 protein (Q07820 whole entry): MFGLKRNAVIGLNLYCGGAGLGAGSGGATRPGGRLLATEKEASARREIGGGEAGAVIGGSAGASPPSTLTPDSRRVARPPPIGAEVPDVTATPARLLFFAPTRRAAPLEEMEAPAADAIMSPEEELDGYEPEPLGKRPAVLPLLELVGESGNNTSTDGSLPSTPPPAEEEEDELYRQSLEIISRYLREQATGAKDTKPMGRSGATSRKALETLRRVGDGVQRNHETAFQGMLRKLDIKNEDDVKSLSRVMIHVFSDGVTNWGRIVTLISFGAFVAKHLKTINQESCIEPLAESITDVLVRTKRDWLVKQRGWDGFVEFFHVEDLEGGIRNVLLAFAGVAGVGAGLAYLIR
Summary of the method: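 Fluorescence polarisation competition with an 11-point compound dilution series (final DMSO 5%). Mcl-1 protein at 5 nM and fluorescein-labelled ligand at 1 nM (final) in 10 mM HEPES, 150 mM NaCl, 0.05% Tween 20, pH 7.4.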

[2] = test system: H929 multiple myeloma tumour line; assay: In vitro cytotoxicity, Microculture Tetrazolium Assay; type: cell-based; details: H929 cells, 48 hours exposure, MTT, read-out: IC50 (μM) MTT H929
Procedure: The cytotoxicity studies were carried out on the H929 multiple myeloma tumour line.
The cells are distributed onto microplates and exposed to the test compounds for 48 hours.

Structure (SMILES) | IC50 [1] | IC50 ([2]; Homo sapiens, NCI-H929, 48 h) | IC50 [2]
Cc1c(-c2c(-c3ccco3)sc3ncnc(OC(Cc4ccccc4NC(=O)OC(C)(C)C)C(=O)O)c23)ccc(OCCN2CCN(C)CC2)c1Cl [Example 358, (2R)-3-{2-[(tert-butoxycarbonyl)amino]phenyl}-2-{[(5Sa)-5-{3-chloro-2-methyl-4-[2-(4-methylpiperazin-1-yl)ethoxy]phenyl}-6-(furan-2-yl)thieno[2,3-d]pyrimidin-4-yl]oxy}propanoic acid] | 9.5e-09 M | 1.61 µM | –
Cc1c(-c2c(-c3ccc(Cl)o3)sc3ncnc(OC(Cc4ccccc4OCc4ccccn4)C(=O)O)c23)ccc(OCCN2CCN(C)CC2)c1Cl [Example 366, (2R)-2-{[6-(5-chlorofuran-2-yl)-(5Sa)-5-{3-chloro-2-methyl-4-[2-(4-methylpiperazin-1-yl)ethoxy]phenyl}thieno[2,3-d]pyrimidin-4-yl]oxy}-3-[2-(pyridin-2-ylmethoxy)phenyl]propanoic acid] | 8.6e-09 M | 0.346 µM | –
Cc1c(-c2c(-c3ccc(Cl)o3)sc3ncnc(OC(Cc4ccccc4OCc4ccnc(C(F)(F)F)n4)C(=O)O)c23)ccc(OCCN2CCN(C)CC2)c1Cl [Example 367, (2R)-2-{[6-(5-chlorofuran-2-yl)-(5Sa)-5-{3-chloro-2-methyl-4-[2-(4-methylpiperazin-1-yl)ethoxy]phenyl}thieno[2,3-d]pyrimidin-4-yl]oxy}-3-(2-{[2-(trifluoromethyl)pyrimidin-4-yl]methoxy}phenyl)propanoic acid] | 3.2e-09 M | 0.015 µM | –
CCn1nccc1COc1ccccc1CC(Oc1ncnc2sc(-c3ccc(Cl)o3)c(-c3ccc(OCCN4CCN(C)CC4)c(Cl)c3C)c12)C(=O)O [Example 372, (2R)-2-{[6-(5-chlorofuran-2-yl)-(5Sa)-5-{3-chloro-2-methyl-4-[2-(4-methylpiperazin-1-yl)ethoxy]phenyl}thieno[2,3-d]pyrimidin-4-yl]oxy}-3-{2-[(1-ethyl-1H-pyrazol-5-yl)methoxy]phenyl}propanoic acid] | 9.7e-09 M | 0.018 µM | –
Cc1c(-c2c(-c3ccc(Cl)o3)sc3ncnc(OC(Cc4ccccc4OCc4ccnn4CC(F)(F)F)C(=O)O)c23)ccc(OCCN2CCN(C)CC2)c1Cl [Example 373, (2R)-2-{[6-(5-chlorofuran-2-yl)-(5Sa)-5-{3-chloro-2-methyl-4-[2-(4-methylpiperazin-1-yl)ethoxy]phenyl}thieno[2,3-d]pyrimidin-4-yl]oxy}-3-(2-{[1-(2,2,2-trifluoroethyl)-1H-pyrazol-5-yl]methoxy}phenyl)propanoic acid] | 4.6e-09 M | 0.012 µM | –
Cc1c(-c2c(-c3ccc(Cl)o3)sc3ncnc(OC(Cc4ccccc4OCc4cncnc4)C(=O)O)c23)ccc(OCCN2CCN(C)CC2)c1Cl [Example 375, (2R)-2-{[6-(5-chlorofuran-2-yl)-(5Sa)-5-{3-chloro-2-methyl-4-[2-(4-methylpiperazin-1-yl)ethoxy]phenyl}thieno[2,3-d]pyrimidin-4-yl]oxy}-3-[2-(pyrimidin-5-ylmethoxy)phenyl]propanoic acid] | 5.6e-09 M | 0.081 µM | –
Cc1c(-c2c(-c3ccc(Cl)o3)sc3ncnc(OC(Cc4ccccc4OCC4CCCO4)C(=O)O)c23)ccc(OCCN2CCN(C)CC2)c1Cl [Example 377, (2R)-2-{[6-(5-chlorofuran-2-yl)-(5Sa)-5-{3-chloro-2-methyl-4-[2-(4-methylpiperazin-1-yl)ethoxy]phenyl}thieno[2,3-d]pyrimidin-4-yl]oxy}-3-{2-[(2S)-tetrahydrofuran-2-ylmethoxy]phenyl}propanoic acid] | 3.8e-09 M | – | 0.047 µM
COc1cc(-c2sc3ncnc(OC(Cc4ccccc4OCC4CCCO4)C(=O)O)c3c2-c2ccc(OCCN3CCN(C)CC3)c(Cl)c2C)ccc1F [Example 379, (2R)-2-{[(5Sa)-5-{3-chloro-2-methyl-4-[2-(4-methylpiperazin-1-yl)ethoxy]phenyl}-6-(4-fluoro-3-methoxyphenyl)thieno[2,3-d]pyrimidin-4-yl]oxy}-3-{2-[(2R)-tetrahydrofuran-2-ylmethoxy]phenyl}propanoic acid] | 1.3e-08 M | 0.174 µM | –
COc1cc(-c2sc3ncnc(OC(Cc4ccccc4OCC(F)(F)F)C(=O)O)c3c2-c2ccc(OCCN3CCN(C)CC3)c(Cl)c2C)ccc1F [Example 380, (2R)-2-{[(5Sa)-5-{3-chloro-2-methyl-4-[2-(4-methylpiperazin-1-yl)ethoxy]phenyl}-6-(4-fluoro-3-methoxyphenyl)thieno[2,3-d]pyrimidin-4-yl]oxy}-3-[2-(2,2,2-trifluoroethoxy)phenyl]propanoic acid] | 1.1e-08 M | 0.162 µM | –

More lines, in order of falling IC50 [1], values ahead:

IC50 [1] | Structure (SMILES) | IC50 ([2]; Homo sapiens, NCI-H929, 48 h) | IC50 [2]
2.6e-08 M | Cc1c(-c2c(-c3ccco3)sc3ncnc(OC(Cc4ccccc4SCC(F)(F)F)C(=O)O)c23)ccc(OCCN2CCN(C)CC2)c1Cl [Example 362, (2R)-2-{[(5Sa)-5-{3-chloro-2-methyl-4-[2-(4-methylpiperazin-1-yl)ethoxy]phenyl}-6-(furan-2-yl)thieno[2,3-d]pyrimidin-4-yl]oxy}-3-{2-[(2,2,2-trifluoroethyl)sulfanyl]phenyl}propanoic acid] | 1 µM | –
1.4e-08 M | Cc1c(-c2c(-c3ccc(Cl)o3)sc3ncnc(OC(Cc4ccccc4OCc4ccnc(N5CCOCC5)n4)C(=O)O)c23)ccc(OCCN2CCN(C)CC2)c1Cl [Example 368, (2R)-2-{[6-(5-chlorofuran-2-yl)-(5Sa)-5-{3-chloro-2-methyl-4-[2-(4-methylpiperazin-1-yl)ethoxy]phenyl}thieno[2,3-d]pyrimidin-4-yl]oxy}-3-(2-{[2-(morpholin-4-yl)pyrimidin-4-yl]methoxy}phenyl)propanoic acid] | 0.005 µM | –
9.2e-09 M | Cc1c(-c2c(-c3ccc(Cl)o3)sc3ncnc(OC(Cc4ccccc4OCc4cnccn4)C(=O)O)c23)ccc(OCCN2CCN(C)CC2)c1Cl [Example 374, (2R)-2-{[6-(5-chlorofuran-2-yl)-(5Sa)-5-{3-chloro-2-methyl-4-[2-(4-methylpiperazin-1-yl)ethoxy]phenyl}thieno[2,3-d]pyrimidin-4-yl]oxy}-3-[2-(pyrazin-2-ylmethoxy)phenyl]propanoic acid] | 0.038 µM | –
8.7e-09 M | Cc1c(-c2c(-c3ccc(Cl)o3)sc3ncnc(OC(Cc4ccccc4OCc4ccncn4)C(=O)O)c23)ccc(OCCN2CCN(C)CC2)c1Cl [Example 370, (2R)-2-{[6-(5-chlorofuran-2-yl)-(5Sa)-5-{3-chloro-2-methyl-4-[2-(4-methylpiperazin-1-yl)ethoxy]phenyl}thieno[2,3-d]pyrimidin-4-yl]oxy}-3-[2-(pyrimidin-4-ylmethoxy)phenyl]propanoic acid] | 0.018 µM | –
5.9e-09 M | Cc1c(-c2c(-c3ccc(Cl)o3)sc3ncnc(OC(Cc4ccccc4OCC(F)(F)F)C(=O)O)c23)ccc(OCCN2CCN(C)CC2)c1Cl [Example 365, (2R)-2-{[6-(5-chlorofuran-2-yl)-(5Sa)-5-{3-chloro-2-methyl-4-[2-(4-methylpiperazin-1-yl)ethoxy]phenyl}thieno[2,3-d]pyrimidin-4-yl]oxy}-3-[2-(2,2,2-trifluoroethoxy)phenyl]propanoic acid] | 0.026 µM | –
5.6e-09 M | Cc1c(-c2c(-c3ccc(Cl)o3)sc3ncnc(OC(Cc4ccccc4OCc4ccnn4C)C(=O)O)c23)ccc(OCCN2CCN(C)CC2)c1Cl [Example 371, (2R)-2-{[6-(5-chlorofuran-2-yl)-(5Sa)-5-{3-chloro-2-methyl-4-[2-(4-methylpiperazin-1-yl)ethoxy]phenyl}thieno[2,3-d]pyrimidin-4-yl]oxy}-3-{2-[(1-methyl-1H-pyrazol-5-yl)methoxy]phenyl}propanoic acid] | 0.027 µM | –
5.1e-09 M | Cc1c(-c2c(-c3ccc(Cl)o3)sc3ncnc(OC(Cc4ccccc4OCC4CCCO4)C(=O)O)c23)ccc(OCCN2CCN(C)CC2)c1Cl [Example 364, (2R)-2-{[6-(5-chlorofuran-2-yl)-(5Sa)-5-{3-chloro-2-methyl-4-[2-(4-methylpiperazin-1-yl)ethoxy]phenyl}thieno[2,3-d]pyrimidin-4-yl]oxy}-3-{2-[(2R)-tetrahydrofuran-2-ylmethoxy]phenyl}propanoic acid] | 0.052 µM | –
5.1e-09 M | COc1nccc(COc2ccccc2CC(Oc2ncnc3sc(-c4ccc(Cl)o4)c(-c4ccc(OCCN5CCN(C)CC5)c(Cl)c4C)c23)C(=O)O)n1 [Example 369, (2R)-2-{[6-(5-chlorofuran-2-yl)-(5Sa)-5-{3-chloro-2-methyl-4-[2-(4-methylpiperazin-1-yl)ethoxy]phenyl}thieno[2,3-d]pyrimidin-4-yl]oxy}-3-{2-[(2-methoxypyrimidin-4-yl)methoxy]phenyl}propanoic acid] | 0.009 µM | –
3.2e-09 M | COc1cc(-c2sc3ncnc(OC(Cc4ccccc4OC)C(=O)O)c3c2-c2ccc(OCCN3CCN(C)CC3)c(Cl)c2C)ccc1F [Example 378, (2R)-2-{[(5Sa)-5-{3-chloro-2-methyl-4-[2-(4-methylpiperazin-1-yl)ethoxy]phenyl}-6-(4-fluoro-3-methoxyphenyl)thieno[2,3-d]pyrimidin-4-yl]oxy}-3-(2-methoxyphenyl)propanoic acid] | 0.202 µM | –
2e-09 M | Cc1c(-c2c(-c3ccc(Cl)o3)sc3ncnc(OC(Cc4ccccc4OCc4cocn4)C(=O)O)c23)ccc(OCCN2CCN(C)CC2)c1Cl [Example 376, (2R)-2-{[6-(5-chlorofuran-2-yl)-(5Sa)-5-{3-chloro-2-methyl-4-[2-(4-methylpiperazin-1-yl)ethoxy]phenyl}thieno[2,3-d]pyrimidin-4-yl]oxy}-3-[2-(1,3-oxazol-4-ylmethoxy)phenyl]propanoic acid] | 0.076 µM | –
